Target: Ba/F3 EGFR Del19/C797S cells (Homo sapiens, UniProt P00533, C797S, cells depend on it, form not given)
Test: Cell proliferation inhibition (Cell Titer-Glo), Ba/F3 EGFR Del19/C797S
Format: cell-based, mouse
Conditions: 72 hours, CellTiter-Glo, read-out: Ba/F3 EGFR Del19/C797S IC50
From the text: Experimental objective: The objective of this test example is to test the inhibitory activity of compounds on the proliferation of different EGFR C797S drug-resistant mutant cell lines Ba/F3 EGFR Del19/T790M/C797S, Ba/F3 EGFR L858R/T790M/C797S, and Ba/F3 EGFR Del19/C797S.
• Ba/F3 EGFR Del19/T790M/C797S cells were purchased from KYinno Biotechnology Co., Ltd.; • Ba/F3 EGFR Del19/C797S cells were purchased from CoBioer Biosciences Co., Ltd.; • Ba/F3 EGFR L858R/T790M/C797S cells were purchased from CoBioer Biosciences Co., Ltd.; • Cell Titer-Glo was purchased from Promega, with a catalog number of G7573; • RPMI 1640 was purchased from Gibco, with a catalog number of 22400089; • FBS was purchased from Gibco, with a catalog number of 10091148; • cell culture plates were purchased from Corning, with a catalog number of 3610.
The inhibitory activity of the compound on the proliferation of different EGFR C797S drug-resistant mutant cell lines was detected using the Cell Titer-Glo method. The different cell lines were cultured in RPMI 1640 complete culture medium containing 10% FBS under conditions of 37° C. and 5% CO2, the cells were collected by centrifugation when growing to a certain density, and adjusted to appropriate cell density after counting, the cells were spread on a white 96-well plate at 90 μL/well, and cultured in a 37° C., 5% CO2 incubator overnight, prepared compound solutions of different concentrations were added at 10 μL/well, corresponding solvent controls were set, and all wells were cultured in a 37° C., 5% CO2 incubator for 72 hours, 50 μL of CellTiter-Glo solution was added to each well, shook and mixed evenly, and incubated in the dark for 10 minutes, and a BioTek Synergy H1 microplate reader was used for reading.
The luminescence signal value was used to calculate the inhibition rate. Graphpad Prism software was used to fit the concentration and inhibition rate to a nonlinear regression curve, so as to obtain the IC50 value, as shown in the Table below for details.

Chain of Ba/F3 EGFR Del19/C797S cells (P00533 with tags, fused parts or gaps DEL746-750/C797S, form open): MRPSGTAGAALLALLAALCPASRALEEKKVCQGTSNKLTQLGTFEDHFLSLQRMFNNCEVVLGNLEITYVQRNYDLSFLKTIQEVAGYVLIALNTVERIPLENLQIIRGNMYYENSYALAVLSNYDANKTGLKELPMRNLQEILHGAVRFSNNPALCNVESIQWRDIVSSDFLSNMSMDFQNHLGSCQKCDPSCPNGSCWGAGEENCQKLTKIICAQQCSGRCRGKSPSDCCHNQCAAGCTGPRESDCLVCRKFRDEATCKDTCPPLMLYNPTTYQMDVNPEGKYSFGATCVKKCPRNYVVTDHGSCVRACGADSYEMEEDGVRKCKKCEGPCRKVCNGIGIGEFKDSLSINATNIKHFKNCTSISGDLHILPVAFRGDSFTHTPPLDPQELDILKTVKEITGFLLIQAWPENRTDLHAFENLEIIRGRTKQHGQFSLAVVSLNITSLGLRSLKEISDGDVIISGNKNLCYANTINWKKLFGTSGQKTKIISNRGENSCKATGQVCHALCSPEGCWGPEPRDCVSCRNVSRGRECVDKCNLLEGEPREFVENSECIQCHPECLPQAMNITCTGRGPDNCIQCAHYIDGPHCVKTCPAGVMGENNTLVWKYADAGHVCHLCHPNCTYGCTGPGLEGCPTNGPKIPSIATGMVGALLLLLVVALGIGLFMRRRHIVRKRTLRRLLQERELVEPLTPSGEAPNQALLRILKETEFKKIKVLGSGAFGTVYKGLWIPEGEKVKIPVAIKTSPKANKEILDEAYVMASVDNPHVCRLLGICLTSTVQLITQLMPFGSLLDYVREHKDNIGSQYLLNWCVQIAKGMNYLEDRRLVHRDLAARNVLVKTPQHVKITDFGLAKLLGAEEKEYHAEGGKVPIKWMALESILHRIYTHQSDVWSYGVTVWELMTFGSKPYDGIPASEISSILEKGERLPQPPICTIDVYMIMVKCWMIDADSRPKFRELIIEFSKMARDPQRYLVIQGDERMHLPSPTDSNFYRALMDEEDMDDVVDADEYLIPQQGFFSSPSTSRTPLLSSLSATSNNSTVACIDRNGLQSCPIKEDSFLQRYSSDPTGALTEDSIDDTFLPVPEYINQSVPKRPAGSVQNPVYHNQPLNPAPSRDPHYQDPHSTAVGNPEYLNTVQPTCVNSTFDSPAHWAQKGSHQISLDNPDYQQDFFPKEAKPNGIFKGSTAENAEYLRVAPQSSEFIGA

Row | GI50 | SMILES
1 | 70 nM | CC(C)c1ccc(N2C[C@H](CS(C)(=O)=O)[C@H]2C)c2cnc(Nc3ccnc(-c4cn(C5CC6CN(C)CC6C5)nc4Cl)n3)cc12 (stereo partly drawn) [Example 150, N-(2-(3-chloro-1-(2-methyloctahydrocyclopentadieno[c]pyrrol-5-yl)-1H-pyrazol-4-yl)pyrimidin-4-yl)-5-isopropyl-8-((2R,3S)-2-methyl-3-((methanesulfonyl)methyl)azetidin-1-yl)isoquinolin-3-amine]
2 | 22 nM | CC(C)c1ccc(N2C[C@H](CS(C)(=O)=O)[C@H]2C)c2cnc(Nc3ccnc(-c4cn(CC5CCO5)nc4Cl)n3)cc12 (stereo partly drawn) [Example 165, N-(2-(3-chloro-1-(oxetan-2-ylmethyl)-1H-pyrazol-4-yl)pyrimidin-4-yl)-5-isopropyl-8-((2R,3S)-2-methyl-3-((methanesulfonyl)methyl)azetidin-1-yl)isoquinolin-3-amine]
3 | 14 nM | CC(C)c1c(F)cc(N2CC(N(C)S(C)(=O)=O)C2)c2cnc(Nc3ccnc(-c4cn(C)nc4Cl)n3)cc12 [Example 124, N-(1-(3-((2-(3-chloro-1-methyl-1H-pyrazol-4-yl)pyrimidin-4-yl)amino)-6-fluoro-5-isopropylisoquinolin-8-yl)azetidin-3-yl)-N-methyl methanesulfonamide]
4 | 22 nM | CC(C)c1ccc(N2C[C@H](CS(C)(=O)=O)[C@H]2C)c2cnc(Nc3ccnc(-c4cn(C5CC(O)C5)nc4Cl)n3)cc12 (stereo partly drawn) [Example 154A, 3-(3-chloro-4-(4-((5-isopropyl-8-((2R,3S)-2-methyl-3-((methanesulfonyl)methyl)azetidin-1-yl)isoquinolin-3-yl)amino)pyrimidin-2-yl)-1H-pyrazol-1-yl)cyclobutan-1-ol]
5 | 65 nM | CC1CC(Cn2cc(-c3nccc(Nc4cc5c(C(C)C)ccc(N6C[C@H](CS(C)(=O)=O)[C@H]6C)c5cn4)n3)c(Cl)n2)O1 (stereo partly drawn) [Example 188, N-(2-(3-chloro-1-((4-methyloxetan-2-yl)methyl)-1H-pyrazol-4-yl)pyrimidin-4-yl)-5-isopropyl-8-((2R,3S)-2-methyl-3-((methanesulfonyl)methyl)azetidin-1-yl)isoquinolin-3-amine]
6 | 6 nM | Cc1nn(C)cc1-c1nccc(Nc2cc3c(C(C)C)ncc(N4C[C@H](N(C)S(C)(=O)=O)[C@H]4C)c3cn2)n1 [Example 61, N-((2R,3S)-1-(7-((2-(1,3-dimethyl-1H-pyrazol-4-yl)pyrimidin-4-yl)amino)-1-isopropyl-2,6-diazanaphthalen-4-yl)-2-methylazetidin-3-yl)-N-methyl methanesulfonamide]
7 | 30 nM | CC(C)c1ccc(N2C[C@H](CS(C)(=O)=O)[C@H]2C)c2cnc(Nc3ccnc(-c4cn([C@@H]5CCOC5)nc4Cl)n3)cc12 [Example 143, N-(2-(3-chloro-1-((R)-tetrahydrofuran-3-yl)-1H-pyrazol-4-yl)pyrimidin-4-yl)-5-isopropyl-8-((2R,3S)-2-methyl-3-((methanesulfonyl)methyl)azetidin-1-yl)isoquinolin-3-amine]
8 | 73 nM | CC(C)c1ccc(N2C[C@H](CS(C)(=O)=O)[C@H]2C)c2cnc(Nc3ccnc(-c4cn(C(C)C#N)nc4Cl)n3)cc12 (stereo partly drawn) [Example 115, 2-(3-chloro-4-(4-((5-isopropyl-8-((2R,3S)-2-methyl-3-((methanesulfonyl)methyl)azetidin-1-yl)isoquinolin-3-yl)amino)pyrimidin-2-yl)-1H-pyrazol-1-yl)propanenitrile]
9 | 43 nM | CC(C)c1ccc(N2C[C@H](CS(C)(=O)=O)[C@H]2C)c2cnc(Nc3ccnc(-c4cn(C(F)F)nc4Cl)n3)cc12 [Example 177, N-(2-(3-chloro-1-(difluoromethyl)-1H-pyrazol-4-yl)pyrimidin-4-yl)-5-isopropyl-8-((2R,3S)-2-methyl-3-((methanesulfonyl)methyl)azetidin-1-yl)isoquinolin-3-amine]
10 | 80 nM | CC(C)c1ccc(N2C[C@H](CS(C)(=O)=O)[C@H]2C)c2cnc(Nc3ccnc(-c4cn(C[C@H]5CCN5C)nc4Cl)n3)cc12 [Example 146, N-(2-(3-chloro-1-(((R)-1-methylazetidin-2-yl)methyl)-1H-pyrazol-4-yl)pyrimidin-4-yl)-5-isopropyl-8-((2R,3S)-2-methyl-3-((methanesulfonyl)methyl)azetidin-1-yl)isoquinolin-3-amine]
11 | 60 nM | CC(C)c1ccc(N2C[C@H](CS(C)(=O)=O)[C@H]2C)c2cnc(Nc3ccnc(-c4c[nH]nc4Cl)n3)cc12 [Example 170, N-(2-(3-chloro-1H-pyrazol-4-yl)pyrimidin-4-yl)-5-isopropyl-8-((2R,3S)-2-methyl-3-((methanesulfonyl)methyl)azetidin-1-yl)isoquinolin-3-amine]
12 | 52 nM | CC(C)c1c(N)cc(N2C[C@H](CS(C)(=O)=O)[C@H]2C)c2cnc(Nc3ccnc(-c4cn(C)nc4Cl)n3)cc12 [Example 169, N3-(2-(3-chloro-1-methyl-1H-pyrazol-4-yl)pyrimidin-4-yl)-5-isopropyl-8-((2R,3S)-2-methyl-3-((methanesulfonyl)methyl)azetidin-1-yl)isoquinoline-3,6-diamine]
13 | 17 nM | Cc1nn(C)cc1-c1nccc(Nc2cc3c(C(C)C)ccc(N4CC(N(C)S(C)(=O)=O)C4)c3cn2)n1 [Example 71, N-(1-(3-((2-(1,3-dimethyl-1H-pyrazol-4-yl)pyrimidin-4-yl)amino)-5-isopropylisoquinolin-8-yl)azetidin-3-yl)-N-methyl methanesulfonamide]
14 | 22 nM | Cc1nn(C)cc1-c1nccc(Nc2cc3c(C(C)C)c(F)cc(N4CC(N(C)S(C)(=O)=O)C4)c3cn2)n1 [Example 129, N-(1-(3-((2-(1,3-dimethyl-1H-pyrazol-4-yl)pyrimidin-4-yl)amino)-6-fluoro-5-isopropylisoquinolin-8-yl)azetidin-3-yl)-N-methyl methanesulfonamide]
15 | 41 nM | CC(C)c1ccc(N2C[C@H](CS(C)(=O)=O)[C@H]2C)c2cnc(Nc3ccnc(-c4cn([C@H]5CCOC5)nc4Cl)n3)cc12 [Example 142, N-(2-(3-chloro-1-((S)-tetrahydrofuran-3-yl)-1H-pyrazol-4-yl)pyrimidin-4-yl)-5-isopropyl-8-((2R,3S)-2-methyl-3-((methanesulfonyl)methyl)azetidin-1-yl)isoquinolin-3-amine]
16 | 52 nM | CC(C)c1ccc(N2C[C@H](CS(C)(=O)=O)[C@H]2C)c2cnc(Nc3ccnc(-c4cn(C(C)(C)C#N)nc4Cl)n3)cc12 [Example 112, 2-(3-chloro-4-(4-((5-isopropyl-8-((2R,3S)-2-methyl-3-((methanesulfonyl)methyl)azetidin-1-yl)isoquinolin-3-yl)amino)pyrimidin-2-yl)-1H-pyrazol-1-yl)-2-methylpropanenitrile]
17 | 26 nM | CC(C)c1ccc(N2C[C@H](CS(C)(=O)=O)[C@H]2C)c2cnc(Nc3ccnc(-c4cn(C[C@H]5CCCO5)nc4Cl)n3)cc12 [Example 144, N-(2-(3-chloro-1-(((R)-tetrahydrofuran-2-yl)methyl)-1H-pyrazol-4-yl)pyrimidin-4-yl)-5-isopropyl-8-((2R,3S)-2-methyl-3-((methanesulfonyl)methyl)azetidin-1-yl)isoquinolin-3-amine]
18 | 41 nM | CC(C)c1ccc(N2C[C@H](CS(C)(=O)=O)[C@H]2C)c2cnc(Nc3ccnc(-c4cn(C5CC(C#N)C5)nc4Cl)n3)cc12 (stereo partly drawn) [Example 151A, 3-(3-chloro-4-(4-((5-isopropyl-8-((2R,3S)-2-methyl-3-((methanesulfonyl)methyl)azetidin-1-yl)isoquinolin-3-yl)amino)pyrimidin-2-yl)-1H-pyrazol-1-yl)cyclobutane-1-carbonitrile]
19 | 39 nM | CC(=O)Cn1cc(-c2nccc(Nc3cc4c(C(C)C)ccc(N5C[C@H](CS(C)(=O)=O)[C@H]5C)c4cn3)n2)c(Cl)n1 [Example 114, 1-(3-chloro-4-(4-((5-isopropyl-8-((2R,3S)-2-methyl-3-((methanesulfonyl)methyl)azetidin-1-yl)isoquinolin-3-yl)amino)pyrimidin-2-yl)-1H-pyrazol-1-yl)propan-2-one]
20 | 19 nM | CC(C)c1c(F)cc(N2CC(NS(C)(=O)=O)C2)c2cnc(Nc3ccnc(-c4cn(C)nc4Cl)n3)cc12 [Example 178, N-(1-(3-((2-(3-chloro-1-methyl-1H-pyrazol-4-yl)pyrimidin-4-yl)amino)-6-fluoro-5-isopropylisoquinolin-8-yl)azetidin-3-yl)methanesulfonamide]
21 | 64 nM | CC(C)c1ccc(N2C[C@H](CS(C)(=O)=O)[C@H]2C)c2cnc(Nc3ccnc(-c4cn(C5CC6(COC6)C5)nc4Cl)n3)cc12 [Example 141, N-(2-(3-chloro-1-(2-oxaspiro[3.3]heptan-6-yl)-1H-pyrazol-4-yl)pyrimidin-4-yl)-5-isopropyl-8-((2R,3S)-2-methyl-3-((methanesulfonyl)methyl)azetidin-1-yl)isoquinolin-3-amine]

From patent US20250206718A1, “NITROGEN-CONTAINING HETEROCYCLIC DERIVATIVE INHIBITOR, PREPARATION METHOD THEREFOR AND USE THEREOF” (SHANGHAI HANSOH BIOMEDICAL CO., LTD., priority 2022, published 2025)
